Results as given in the OPERA property sets (Mansouri et al. 2018).

| Compound | logP |
| --- | --- |
| CCN1CC(C(O)C(CC2CCCCC2)NC(=O)C(Cc2cnc[nH]2)NC(=O)C(CC(=O)N(C)CCOCOCCOC)Cc2ccccc2)OC1=O (stereo unspecified) | 2.21 |
| O=[N+]([O-])O[C@@H]1CO[C@H]2[C@@H]1OC[C@@H]2O | -0.15 |
| O=C1CN=C(c2ccccc2)c2cc(Br)ccc2N1 | 3.11 |
| O=C(O)Cc1cccc2ccccc12 | 2.24 |
| CCC1OC(=O)C(C)C(OC2CC(C)(OC)C(OC=O)C(C)O2)C(C)C(OC2OC(C)CC(N(C)C)C2O)C(C)(O)CC(C)C(=O)C(C)C(O)C1(C)O (stereo unspecified) | 2.64 |
| O=c1c2ccccc2nc2n1CCC2 | 1.07 |
| Cc1ccc(F)cc1NC1=NCCN1 | 1.41 |
| COc1cc2nc(N3CCN(C(=O)C(C)OC)CC3)nc(N)c2cc1OC (stereo unspecified) | 1.14 |
| Cc1cccc(C)c1NC(=O)C(C)N (stereo unspecified) | 0.76 |
| O=C(CN1CCOCC1)NCc1ccccc1 | 0.67 |
| CC1OC(OC2CCC3(C)C(CCC4C3CC(O)C3(C)C(C5=CC(=O)OC5)CCC43O)C2)CC(O)C1O (stereo unspecified) | 1.09 |
| C=C1C(=O)OC2CC3(C)CCCC(=C)C3CC12 (stereo unspecified) | 3.42 |
| O=NN1CC=CCC1 | 1.18 |
| CCC(CC)(C(=O)NC(N)=O)C(=O)OCc1ccccc1 | 2.74 |
| CCN1CC(C(O)C(CC2CCCCC2)NC(=O)C(Cc2cnc[nH]2)NC(=O)C(Cc2ccc(OC)cc2)NC(=O)N(C)CCOCOCCOC)OC1=O (stereo unspecified) | 2.03 |
| O=C(O)c1ccc(Cl)cc1Nc1cccc(Br)c1 | 5.16 |
| CC1CCCC(c2ccccc2)(N2CCCCC2)C1 (stereo unspecified) | 5.86 |
| O=C(O)c1cccnc1 | 0.36 |
| CCCCNC(=O)NS(=O)(=O)c1ccc(N)cc1 | 1.01 |
| CC(N)CC1CCCCCCC1 (stereo unspecified) | 3.7 |
| CC(C(=O)NCC(O)CO)n1ccnc1[N+](=O)[O-] (stereo unspecified) | -1.64 |
| O=C(O)c1ccc(Cl)cc1Nc1cccc(Cl)c1 | 5 |
| O=C1C[N+]([O-])=C(c2ccccc2)c2cc(Cl)ccc2N1 | 1.49 |

| Compound | logP |
| --- | --- |
| COc1cc(Cc2cnc(N)nc2N)c(I)c(OC)c1OC | 1.79 |
| CO[C@@]1(NC(=O)Cc2cccs2)C(=O)N2C(C(=O)O)=C(COC(N)=O)CS[C@@H]21 | -0.02 |
| N#Cc1ccc(C[Se]CCC(=O)O)cc1 | 1.37 |
| Clc1cccc(Br)c1N=C1NCCN1 | 1.73 |
| C[C@@H]1Cc2c(Cl)cc(C(=O)N[C@@H](Cc3ccccc3)C(=O)O)c(O)c2C(=O)O1 | 4.74 |
| C#C[C@]1(O)CC[C@H]2[C@@H]3CCc4cc(O)ccc4[C@H]3[C@@H](OC)C[C@@]21C | 3.01 |
| CCN1CC(C(O)C(CC2CCCCC2)NC(=O)C(Cc2c[nH]cn2)NC(=O)C(CC(=O)N2CCOCC2)Cc2ccccc2)OC1=O (stereo unspecified) | 2.2 |
| C=CCOc1ccc(C(=O)c2ccc3n2CCC3C(=O)O)cc1 (stereo unspecified) | 3.48 |
| CC(=O)C(C(=O)ON=C(C)C12CC3CC(CC(C3)C1)C2)c1ccccc1 (stereo unspecified) | 4.64 |
| CC(=O)O[C@]1(C(=O)CO)CC[C@H]2[C@@H]3CCC4=CC(=O)CC[C@]4(C)[C@H]3[C@@H](O)C[C@@]21C | 2.3 |
| OCc1cc(Cl)ccc1O | 1.44 |
| CCC1(c2ccccc2)C(=O)N=C(OC(C)C)NC1=O (stereo unspecified) | 1.79 |
| O=C1c2ccccc2C(=O)C1c1ccc(-c2ccccc2)cc1 | 4.79 |
| CCCOc1ccc(CC(=O)O)cc1 | 2.31 |
| CCCCCCCCCCCC(=O)O | 4.6 |
| O=C(NC1CCCCC1)NS(=O)(=O)c1ccc(Cl)cc1 | 3.38 |
| NS(=O)(=O)c1ccc(Cl)c(Cl)c1 | 1.44 |
| O=S(=O)(O)c1cccc2c(O)cccc12 | -0.17 |
| OC1(c2ccccc2Cl)CCCCC1n1cncn1 (stereo unspecified) | 2.68 |
| CCCCc1ccc(CC(=O)O)cc1 | 3.25 |
| Cc1cccc(C)c1NC(=O)CCCCCN | 1.29 |
| O=C(O)c1ccc(Cl)cc1Nc1ccc(I)cc1 | 5.37 |
| CCCN(CCC)CC(=O)NCc1ccccc1 | 3.11 |

| Compound | logP |
| --- | --- |
| O=Cc1cccc(Cl)c1 | 2.26 |
| CC(C)NCC(O)c1ccc2ccccc2c1 (stereo unspecified) | 3 |
| O=C(c1ccc2n1CCC2C(=O)O)C1CCC1 (stereo unspecified) | 2.41 |
| Cc1ccc(Br)cc1N=C1NCCN1 | 1.94 |
| CNC(=O)NS(=O)(=O)c1ccc(C)cc1 | 0.95 |
| CCC(C(=O)OCc1ccc(C)cc1)C(COC(=O)C(C)(C)C)Cc1cncn1C (stereo unspecified) | 4.55 |
| O=C(CN1CCCCC1)Nc1ccc(Cl)c(Cl)c1 | 3.65 |
| NNc1nncc2ccccc12 | 1 |
| Oc1ccc(C2(O)CCN(CCCSc3ccc(F)cc3)CC2)cc1 | 4.17 |
| CCCCCCCCCCCCCCCCCCCC(=O)O | 9.29 |
| CCOC(=O)C(C(=O)OCC)=C1SCCS1 | 2.45 |
| COc1ccc(NC(=O)CN2CCCCC2)cc1 | 2.52 |
| NC1CCc2ccccc2C1 (stereo unspecified) | 2.08 |
| Oc1ccc(O)c2ccccc12 | 1.9 |
| O=C1Nc2ccccc2C1c1ccccc1 (stereo unspecified) | 2.59 |
| FC(F)(c1ccccc1)C(F)(F)c1ccccc1 | 5 |
| O=[N+]([O-])c1cn(CCN2CCOCC2)cn1 | -0.38 |
| CNC1CCc2ccccc2C1 (stereo unspecified) | 2.38 |
| CCc1ccc2cc3ccccc3cc2c1 | 5.85 |
| Cc1cnc2n(c1=O)CCCC2 | 0.12 |
| CCCCNC(=O)c1cc(Br)cc(C)c1O | 4.21 |
| C=C1CCC2C(C1)c1c(OCc3ccc(-c4ccccc4)cc3)cc(CCCCC)cc1OC2(C)C (stereo unspecified) | 11.3 |
| COc1ccc(CCNCC(O)COc2ccc(COCc3ncc[nH]3)cc2)cc1OC (stereo unspecified) | 1.29 |

| Compound | logP |
| --- | --- |
| COC(=O)C1=C(C)NC(C)=C(C(=O)OCCN(C)Cc2ccccc2)C1c1cccc([N+](=O)[O-])c1 (stereo unspecified) | 3.82 |
| Cc1[nH]c2ccccc2c1C | 3.05 |
| CC(C)NCC(O)COc1cccc(CC(N)=O)c1 (stereo unspecified) | 0.22 |
| CN(C)c1nc(N(C)C)nc(N(C)CCO)n1 | 1.96 |
| CC12CCC(=O)C=C1CCC1C3CCC4(CCC(=O)O4)C3(C)CC(O)C12F (stereo unspecified) | 2.4 |
| OC1CCCc2ccccc21 (stereo unspecified) | 1.98 |
| COC1CC2(C)C(O)CCC2C2CCc3cc(O)ccc3C12 (stereo unspecified) | 2.72 |
| Cc1ccc2[nH]c(=O)nc(-c3ccccc3)c2c1 | 2.32 |
| NC(=O)c1cc(Cl)ccc1NCCO | 1.26 |
| CCCNCC(O)COc1ccc(-c2ncc(-c3cccs3)[nH]2)cc1 (stereo unspecified) | 2.84 |
| CCCN(CCC)CC(=O)NC1c2ccccc2-c2ccccc21 | 4.61 |
| CC(C)c1cccc(S(N)(=O)=O)c1 | 1.81 |
| CCCCCc1cc(OCCCCN)c2c(c1)OC(C)(C)C1CC=C(C)CC21 (stereo unspecified) | 8.38 |
| Cc1cc(N=O)ccc1O | 1.71 |
| O=C(COc1ccc(OCCNCC(O)COc2ccccc2)cc1)NCc1ccccc1 (stereo unspecified) | 3.2 |
| O=C(NCCNCC(O)COc1ccc(-c2ncc[nH]2)cc1)Nc1ccccc1 (stereo unspecified) | 1.19 |
| O=C(c1ccc(C(F)(F)F)cc1)c1ccc2n1CCC2C(=O)O (stereo unspecified) | 3.71 |
| O=C1C(Nc2ccccc2)=C(S(=O)(=O)c2ccccc2)C(=O)c2ccccc21 | 3.38 |
| Clc1ccc(-c2ccccc2)cc1Cl | 5.29 |
| CCC(C(=O)OCc1ccccc1)C(COC(=O)c1cccc(Cl)c1)Cc1cncn1C (stereo unspecified) | 5.08 |
| CCOc1ccc(NC(=O)CN2CCCCC2)cc1 | 2.82 |
| CCn1c(=O)n(C)c(=O)c2[nH]cnc21 | 0.52 |
| OC(Cn1ccnc1)(c1ccc(F)cc1)c1cccc(-c2ccncc2)c1 (stereo unspecified) | 2.91 |

| Compound | logP |
| --- | --- |
| CC(C)c1nnc(SCC(=O)c2ccccc2)n(N)c1=O | 2.07 |
| Cc1cc2occc2c2oc(=O)ccc12 | 2.41 |
| CC(C)NCC1CCc2cc(CO)c([N+](=O)[O-])cc2N1 (stereo unspecified) | 2.24 |
| C=C(C)C(=O)OCCOCCOCCOC(=O)C(=C)C | 1.88 |
| O=c1ccc2ccc3occc3c2o1 | 2.08 |
| CCC(C(=O)OCc1ccccc1)C(COC(=O)c1cccnc1)Cc1cncn1C (stereo unspecified) | 3.05 |
| Cc1ccc(S(=O)(=O)NC(=O)Nc2ccccc2)cc1 | 3.11 |
| CS(=O)CCn1ccnc1[N+](=O)[O-] (stereo unspecified) | -1.22 |
| O=C(O)CN1C(=O)C=CC1=O | -0.14 |
| OC(CCN1CCCCC1)(c1ccccc1)C1CCCCC1 (stereo unspecified) | 4.49 |
| CNC(=O)COc1ccc(OCC(O)CNC(C)C)cc1 (stereo unspecified) | 0.56 |
| CCCC(O)C(=O)O (stereo unspecified) | 0.45 |
| c1ccc(C2CCNCC2)cc1 | 2.39 |
| Cc1cc2c(ccc3ccc(=O)oc32)o1 | 2.55 |
| Cc1cc(Br)cc(C(N)=O)c1O | 2.76 |
| O=C(NC12CC3CC(CC(C3)C1)C2)C(O)c1ccccc1 (stereo unspecified) | 3.09 |
| Clc1ccc(Cl)c(-c2ccccc2)c1 | 5.1 |
| COc1cc(OC)cc(C2C(=O)c3ccccc3C2=O)c1 | 2.86 |
| O=C(CBr)c1ccccc1 | 2.19 |
| O=[N+]([O-])c1cc(F)ccc1F | 1.86 |
| CO[C@@]1(NC(=O)CSCC#N)C(=O)N2C(C(=O)O)=C(CSc3nnnn3C)CS[C@@H]21 | -0.6 |
| CCC1(CC)C(=O)N=C(OC(C)C)NC1=O | 1.44 |
| CC(=O)OCC1=C(C(=O)OCOC(=O)C(C)(C)C)N2C(=O)C(NC(=O)Cc3cccs3)C2SC1 (stereo unspecified) | 1.57 |

| Compound | logP |
| --- | --- |
| CC1OC(OC2C(O)CC(OC3CCC4(C)C(CCC5C4CCC4(C)C(C6=CC(=O)OC6)CCC54O)C3)OC2C)CC(O)C1O (stereo unspecified) | 2.15 |
| Clc1cc(Cl)cc(-c2ccccc2)c1 | 5.41 |
| O=C(O)Cc1ccc(C2CCCC2)cc1 | 3.44 |
| CC[C@@H]1C(=O)OC[C@@H]1Cc1cncn1C | 0.12 |
| CCC(C(=O)OCc1ccccc1)C(COC(=O)c1ccccc1)Cc1cncn1C (stereo unspecified) | 4.37 |
| Cc1cccc(C)c1NC(=O)CCC(C)N (stereo unspecified) | 1.08 |
| CC1CCC(c2ccccc2)(N2CCCCC2)CC1 (stereo unspecified) | 5.66 |
| CNC(=O)OC1OC(=O)C2C3C=CC(C3)C12 (stereo unspecified) | 0.63 |
| C=C(C)C(=O)OCc1ccccc1 | 2.53 |
| c1ccc(-c2nccs2)cc1 | 2.77 |
| CC(C)c1cccc(C(C)C)c1NC1=NCCN1 | 3.04 |
| CCOP(N)(=O)ON=C(C#N)c1ccccc1 (stereo unspecified) | 0.72 |
| Nc1nc2c(ncn2C2OC(CO)C(O)C2O)c(=O)[nH]1 (stereo unspecified) | -1.9 |
| COc1cccc2c1C(=O)c1c(O)c3c(c(O)c1C2=O)CC(O)(C(=O)CO)CC3OC1CC(N2CCOCC2)C(O)C(C)O1 (stereo unspecified) | 1.73 |
| OC(Cn1ccnc1)(c1ccc(-c2cccnc2)cc1)c1ccc(F)cc1F (stereo unspecified) | 3.31 |
| CC(=O)Nc1ccccc1C(N)=O | 0.32 |
| COc1cc(OC)c(Cl)c(Cc2cnc(N)nc2N)c1Cl | 2.55 |
| CCCCC(CCC)C(=O)O (stereo unspecified) | 3.01 |
| CCN(CC)CCNC(=O)c1ccc(N)cc1OC | 1.4 |
| CCOC(=O)c1cnc(-c2ccc(OCC(O)CNCCc3ccc(OC)c(OC)c3)cc2)[nH]1 (stereo unspecified) | 2.3 |
| CC(=O)Nc1nc(N2CCN(C)CC2)c(Cl)nc1[N+](=O)[O-] | 0.5 |
